# From patent US11464745B2, “Solid pharmaceutical dosage formulations and processes” (UCL Business PLC, priority 2016, dated 2022)
# Experiments:
# [1] = FDM printing; cited from earlier work
# [2] = Determination of drug loading by HPLC (drug degradation during SLS printing); format: physicochemical; conditions: SLS 3D printing, 445 nm 2.3 W laser
# Procedure: Tablets weighing approx. 300 mg, prepared as in example 1, were placed in a volumetric flask with deionized water (1 L) under magnetic stirring until complete dissolution.
# Samples of the solutions were then filtered through 0.45 μm filters (Millipore Ltd, Ireland) and the concentration of drug determined with high performance liquid chromatograph (HPLC). We used a Hewlett Packard 1050 Series HPLC system, Agilent Technologies, UK. The validated high performance liquid chromatographic assay entailed injecting 20 μL samples for analysis using a mobile phase, consisting of gradient system of (A) water adjusted to pH 2 with orthophosphoric acid and (B) acetonitrile, through a Luna 5 μm C18 column, 150×4.6 mm (Phenomenex, UK) maintained at 40° C. The mobile phase was pumped at a flow rate of 1 mL/min under the following gradient program: 0-15 min, 5-20% B; 15-16 min, 20-5% B.
# HPLC drug loading studies have been performed. […] (Goyanes et al. 3D printing of modified-release aminosalicylate (4-ASA and 5-ASA) tablets. Eur. J. Pharm. Biopharm. 89, 157-162).
structure (smiles),measurement,setting,value
Nc1ccc(C(=O)O)c(O)c1 [4-ASA],drug degradation while printing,[1],degrade
same,drug degradation during the printing process (HPLC),[2],No degradation
